{"source": "the NIST ThermoML archive (doi:10.1021/je9006629)", "key": {"[1]": {"conditions": "Liquid; for Normal boiling temperature: Distillation"}, "[2]": {"assay": "refractive index (Na D-line) (dimensionless); xn = mol fraction of the nth substance listed", "conditions": "293.15 K, 101 kPa, Liquid, Standard Abbe refractometry"}}, "note": "Numbers after ± are expanded uncertainties."}
{"compound": "CCCCO", "note": "[butan-1-ol]", "values": [{"measurement": "vapor or sublimation pressure", "setting": "[1]; 356.35 K", "result": "25.3 ± 0.6", "unit": "kPa"}, {"measurement": "vapor or sublimation pressure", "setting": "[1]; 359.45 K", "result": "29.3 ± 0.6", "unit": "kPa"}, {"measurement": "vapor or sublimation pressure", "setting": "[1]; 362.95 K", "result": "33.5 ± 0.7", "unit": "kPa"}, {"measurement": "vapor or sublimation pressure", "setting": "[1]; 368.6 K", "result": "42.8 ± 0.7", "unit": "kPa"}, {"measurement": "vapor or sublimation pressure", "setting": "[1]; 373.45 K", "result": "52.5 ± 0.8", "unit": "kPa"}, {"measurement": "vapor or sublimation pressure", "setting": "[1]; 373.85 K", "result": "53.3 ± 0.8", "unit": "kPa"}, {"measurement": "vapor or sublimation pressure", "setting": "[1]; 377.3 K", "result": "61.2 ± 0.8", "unit": "kPa"}, {"measurement": "vapor or sublimation pressure", "setting": "[1]; 381.9 K", "result": "72.8 ± 0.9", "unit": "kPa"}, {"measurement": "vapor or sublimation pressure", "setting": "[1]; 386.05 K", "result": "84.9 ± 1", "unit": "kPa"}, {"measurement": "vapor or sublimation pressure", "setting": "[1]; 387.75 K", "result": "91.3 ± 1", "unit": "kPa"}, {"measurement": "vapor or sublimation pressure", "setting": "[1]; 391.95 K", "result": "105.3 ± 1.1", "unit": "kPa"}, {"measurement": "vapor or sublimation pressure", "setting": "[1]; 395.8 K", "result": "120.1 ± 1.2", "unit": "kPa"}, {"measurement": "Normal boiling temperature", "setting": "[1]", "result": "117.80 ± 0.14", "unit": "°C"}]}
{"compound": "CCCCO", "note": "[butan-1-ol] + CCCCCCC", "values": [{"measurement": "refractive index", "setting": "[2]; x1 = 0.1121", "result": "1.3889 ± 0.0007"}, {"measurement": "refractive index", "setting": "[2]; x1 = 0.1897", "result": "1.3898 ± 0.0007"}, {"measurement": "refractive index", "setting": "[2]; x1 = 0.2845", "result": "1.3909 ± 0.0007"}, {"measurement": "refractive index", "setting": "[2]; x1 = 0.3707", "result": "1.3919 ± 0.0007"}, {"measurement": "refractive index", "setting": "[2]; x1 = 0.4655", "result": "1.393 ± 0.0007"}, {"measurement": "refractive index", "setting": "[2]; x1 = 0.5", "result": "1.3934 ± 0.0007"}, {"measurement": "refractive index", "setting": "[2]; x1 = 0.5862", "result": "1.3944 ± 0.0007"}, {"measurement": "refractive index", "setting": "[2]; x1 = 0.681", "result": "1.3955 ± 0.0007"}, {"measurement": "refractive index", "setting": "[2]; x1 = 0.7586", "result": "1.3964 ± 0.0007"}, {"measurement": "refractive index", "setting": "[2]; x1 = 0.8276", "result": "1.3972 ± 0.0007"}, {"measurement": "refractive index", "setting": "[2]; x1 = 0.9224", "result": "1.3983 ± 0.0007"}, {"measurement": "refractive index", "setting": "[2]; x1 = 1", "result": "1.3992 ± 0.0007"}]}
{"compound": "CCCCCCC", "note": "[heptane]", "values": [{"measurement": "vapor or sublimation pressure", "setting": "[1]; 332.9 K", "result": "27.1 ± 0.6", "unit": "kPa"}, {"measurement": "vapor or sublimation pressure", "setting": "[1]; 335.2 K", "result": "29.9 ± 0.7", "unit": "kPa"}, {"measurement": "vapor or sublimation pressure", "setting": "[1]; 336.85 K", "result": "32.3 ± 0.7", "unit": "kPa"}, {"measurement": "vapor or sublimation pressure", "setting": "[1]; 340.55 K", "result": "36.9 ± 0.7", "unit": "kPa"}, {"measurement": "vapor or sublimation pressure", "setting": "[1]; 343.75 K", "result": "41.3 ± 0.7", "unit": "kPa"}, {"measurement": "vapor or sublimation pressure", "setting": "[1]; 348.55 K", "result": "48.9 ± 0.8", "unit": "kPa"}, {"measurement": "vapor or sublimation pressure", "setting": "[1]; 351.45 K", "result": "53.3 ± 0.8", "unit": "kPa"}, {"measurement": "vapor or sublimation pressure", "setting": "[1]; 351.5 K", "result": "53.3 ± 0.8", "unit": "kPa"}, {"measurement": "vapor or sublimation pressure", "setting": "[1]; 352.35 K", "result": "55.3 ± 0.8", "unit": "kPa"}, {"measurement": "vapor or sublimation pressure", "setting": "[1]; 357.25 K", "result": "65.3 ± 0.8", "unit": "kPa"}, {"measurement": "vapor or sublimation pressure", "setting": "[1]; 363.15 K", "result": "78.7 ± 0.9", "unit": "kPa"}, {"measurement": "vapor or sublimation pressure", "setting": "[1]; 368.45 K", "result": "91.3 ± 1", "unit": "kPa"}, {"measurement": "vapor or sublimation pressure", "setting": "[1]; 368.55 K", "result": "92.7 ± 1", "unit": "kPa"}, {"measurement": "vapor or sublimation pressure", "setting": "[1]; 371.35 K", "result": "100.8 ± 1", "unit": "kPa"}, {"measurement": "vapor or sublimation pressure", "setting": "[1]; 374 K", "result": "108.8 ± 1.1", "unit": "kPa"}, {"measurement": "Normal boiling temperature", "setting": "[1]", "result": "98.50 ± 0.14", "unit": "°C"}]}
{"compound": "CCCCCCC", "note": "[heptane] + CCCCCO", "values": [{"measurement": "refractive index", "setting": "[2]; x2 = 0", "result": "1.3876 ± 0.0007"}]}
{"compound": "CCCCCCC", "note": "[heptane] + CCCCO", "values": [{"measurement": "refractive index", "setting": "[2]; x2 = 0", "result": "1.3876 ± 0.0007"}]}
{"compound": "CCCCCO", "note": "[pentan-1-ol]", "values": [{"measurement": "vapor or sublimation pressure", "setting": "[1]; 379.35 K", "result": "31.2 ± 0.7", "unit": "kPa"}, {"measurement": "vapor or sublimation pressure", "setting": "[1]; 382.4 K", "result": "35.3 ± 0.7", "unit": "kPa"}, {"measurement": "vapor or sublimation pressure", "setting": "[1]; 385.65 K", "result": "40 ± 0.7", "unit": "kPa"}, {"measurement": "vapor or sublimation pressure", "setting": "[1]; 390.75 K", "result": "49.2 ± 0.8", "unit": "kPa"}, {"measurement": "vapor or sublimation pressure", "setting": "[1]; 393.2 K", "result": "53.3 ± 0.8", "unit": "kPa"}, {"measurement": "vapor or sublimation pressure", "setting": "[1]; 394.7 K", "result": "56.9 ± 0.8", "unit": "kPa"}, {"measurement": "vapor or sublimation pressure", "setting": "[1]; 400.05 K", "result": "69.3 ± 0.9", "unit": "kPa"}, {"measurement": "vapor or sublimation pressure", "setting": "[1]; 404.6 K", "result": "81.3 ± 0.9", "unit": "kPa"}, {"measurement": "vapor or sublimation pressure", "setting": "[1]; 408.15 K", "result": "91.3 ± 1", "unit": "kPa"}, {"measurement": "vapor or sublimation pressure", "setting": "[1]; 409 K", "result": "94.5 ± 1", "unit": "kPa"}, {"measurement": "vapor or sublimation pressure", "setting": "[1]; 411.35 K", "result": "101.9 ± 1.1", "unit": "kPa"}, {"measurement": "vapor or sublimation pressure", "setting": "[1]; 414.65 K", "result": "113.3 ± 1.1", "unit": "kPa"}, {"measurement": "Normal boiling temperature", "setting": "[1]", "result": "138.0 ± 0.14", "unit": "°C"}]}
{"compound": "CCCCCO", "note": "[pentan-1-ol] + CCCCCCC", "values": [{"measurement": "refractive index", "setting": "[2]; x1 = 0.0755", "result": "1.3893 ± 0.0007"}, {"measurement": "refractive index", "setting": "[2]; x1 = 0.1601", "result": "1.3912 ± 0.0007"}, {"measurement": "refractive index", "setting": "[2]; x1 = 0.2844", "result": "1.394 ± 0.0007"}, {"measurement": "refractive index", "setting": "[2]; x1 = 0.3511", "result": "1.3955 ± 0.0007"}, {"measurement": "refractive index", "setting": "[2]; x1 = 0.4622", "result": "1.398 ± 0.0007"}, {"measurement": "refractive index", "setting": "[2]; x1 = 0.5821", "result": "1.4007 ± 0.0007"}, {"measurement": "refractive index", "setting": "[2]; x1 = 0.6845", "result": "1.403 ± 0.0007"}, {"measurement": "refractive index", "setting": "[2]; x1 = 0.7732", "result": "1.4051 ± 0.0007"}, {"measurement": "refractive index", "setting": "[2]; x1 = 0.8978", "result": "1.4078 ± 0.0007"}, {"measurement": "refractive index", "setting": "[2]; x1 = 1", "result": "1.4101 ± 0.0007"}]}
